We go through eleven compounds from patent US12441768B2, “Compositions and methods for treating endometriosis” (EndoMet Biosciences, Inc., priority 2018, dated 2025).

In series [1] the test system is colon cancer cell line (SW480). Format: cell-based. The following applies: SW480, peptide added daily, 7 days. How it is done:
Peptides inhibiting β-catenin cause decreased cell viability in a colon cancer cell line (SW480) and endometriosis lesions excised from a disease animal model. Peptides from libraries described herein are characterized in their effect on cell viability, as measured using a luminescent cell viability assay (Cell Titer-Glo®, Promega, Madison, WI) and expressed as IC50 in Table 5. Peptide inhibitors were tested for their ability to inhibit cellular proliferation across 2 different β-catenin expressing pathogenic cell lines: a colon cancer cell line (SW480) and/or mouse EMS lesion cells derived from mouse model of disease. Both cells lines are naturally known to express high levels of β-catenin. Cell lines were incubated with varying concentrations of peptide concentration and assessed for viability after day 5 and 7 days. The CellTiter-Glo® Luminescent Cell Viability Assay (Promega) is used to detect viable cells. IC50 values are graphed and calculated using Prism software (GraphPad) based on the cell viability readouts. IC50 is used to assess inhibition of cell proliferation by peptide concentration and is used to calculate the inhibitory effect of each peptide across each line. The results are used to assess the therapeutic potency of the peptides. In the SW480 cell line, peptide inhibitors from Family 1 (SEQ ID NO:264) and Family 2 (SEQ ID NO:396) were added daily to the cell growth medium. After 7 days, cell viability was assessed with the Cell-Titer Glo kit (Promega, Madison, WI). […] IC50 was calculated for peptides based on the concentration at which 50% viability was observed (Table 5).

A short description of a further series: in vitro. Conditions: % Viability non-Wnt responsive cells.
For series [2], the target named is Wnt-responsive promoter (TCF/LEF). The experiment in a line: Wnt-dependent luciferase reporter assay. Format: cell-based, murine. Summed up: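 EC50 (uM) derived from inhibition of luminescence in Wnt3a-stimulated murine 3T3 cells expressing luciferase under a TCF/LEF promoter, with peptides added across a concentration range and vehicle as control.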
(In general: In a reporter assay the amount or activity of a reporter protein is the signal.)

For a further series, the target named is T1, β-catenin (Homo sapiens, UniProt P35222).
T1 sequence (P35222 1-781): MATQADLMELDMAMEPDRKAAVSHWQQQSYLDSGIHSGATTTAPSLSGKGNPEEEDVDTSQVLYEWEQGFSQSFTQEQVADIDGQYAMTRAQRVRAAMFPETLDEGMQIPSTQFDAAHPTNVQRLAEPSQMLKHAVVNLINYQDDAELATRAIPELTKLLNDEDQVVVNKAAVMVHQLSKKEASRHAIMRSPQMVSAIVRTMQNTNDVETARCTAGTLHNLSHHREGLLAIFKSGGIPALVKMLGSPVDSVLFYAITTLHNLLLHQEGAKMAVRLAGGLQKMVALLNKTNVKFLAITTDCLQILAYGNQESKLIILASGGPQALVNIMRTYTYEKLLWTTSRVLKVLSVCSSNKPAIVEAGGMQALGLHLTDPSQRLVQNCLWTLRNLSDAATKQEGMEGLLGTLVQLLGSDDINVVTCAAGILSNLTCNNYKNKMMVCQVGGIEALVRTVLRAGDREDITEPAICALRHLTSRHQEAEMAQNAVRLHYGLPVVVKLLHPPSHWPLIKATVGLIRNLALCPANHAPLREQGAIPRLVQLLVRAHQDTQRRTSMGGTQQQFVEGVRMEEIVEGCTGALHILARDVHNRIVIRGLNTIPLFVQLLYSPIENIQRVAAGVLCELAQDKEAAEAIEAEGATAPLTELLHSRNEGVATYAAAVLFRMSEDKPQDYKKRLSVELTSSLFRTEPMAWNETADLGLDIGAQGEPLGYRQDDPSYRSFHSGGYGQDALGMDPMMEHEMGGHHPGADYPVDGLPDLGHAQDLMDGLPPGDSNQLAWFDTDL
Put plainly: KD50 measurement using competitive fluorescence polarization (FP) with labelled TCF4. Format: binding. The following applies: fluorescence polarization, β-catenin; for pKd: read-out: β-Cat FP KD. The essentials: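 Labelled TCF4 (5 nM) mixed with 100 nM β-catenin at room temperature; inhibitor added as serial dilutions from 10 nM to 30 uM. Polarization read at excitation 470 nm/emission 520 nm; binding displacement lowers polarization. Three independent runs.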

SMILES strings stand for the structures. pEC50, pKd: −log10 of the molar value. Where a SMILES comes first, the peptide text is derived from it. [ ]: non-standard residue; d: D form. The star is where a group is joined. ξ: configuration not given here. ξIle = CC[C@H](C)C(N)C(=O)O; Piv = CC(C)(C)C(=O)* Where only a bound is given, the exact number is not on record here.

Regarding `CCCCCCCCCCCCCCCC(=O)N[C@@H](Cc1c[nH]c2ccccc12)C(=O)N(C)[C@@H](Cc1c[nH]c2ccccc12)C(=O)N[C@@H](CCC(=O)O)C(=O)NC(C)(CO)C(=O)N[C@H](C(=O)N[C@@H](CC(C)C)C(=O)N[C@@H](CC(=O)O)C(=O)N[C@@H](CCC(=O)O)C(=O)N[C@@H](Cc1c[nH]cn1)C(=O)NC(C)(C(=O)N[C@@H](CCC(N)=O)C(=O)N[C@@H](CCCNC(=N)N)C(=O)N[C@H](C(=O)N[C@@H](Cc1c[nH]c2ccccc12)C(=O)NCC(=O)O)C(C)C)C(C)C)[C@@H](C)CC` (single isomer, unassigned) [SEQ ID NO: 396, Palmitoyl-W-NmeW-E-aMeS-ILDEH-aMeV-QRVWG-COOH], the “Cell growth / viability” value in series [1] is recorded as “inhibited cell growth”.
On the same count and under the same terms, with `CC[C@H](C)[C@H](NC(=O)[C@H](CC(C)C)NC(=O)[C@@H](NC(=O)[C@H](Cc1c[nH]c2ccccc12)NC(=O)[C@H](CCSC)N(C)C)[C@@H](C)CC)C(=O)N[C@@H](CO)C(=O)N[C@@H](Cc1ccccc1)C(=O)N[C@@H](Cc1c[nH]c2ccccc12)C(=O)NCC(=O)O` [SEQ ID NO: 264] (HELM PEPTIDE1{[CSCC[C@@H](C(=O)[*:2])N(C)C].W.I.L.I.S.F.W.G}$$$$V2.0) the entry was “inhibited cell growth”.
As for `CC[C@H](C)[C@@H]1NC(=O)[C@H](CO)NC(=O)[C@H](CCC(N)=O)NC(=O)[C@H](C)N(C)C(=O)[C@H](Cc2c[nH]c3ccccc23)NC(=O)[C@@H](N)CCCCNC(=O)CNC(=O)[C@H](Cc2c[nH]c3ccccc23)NC(=O)[C@H](C(C)C)NC(=O)[C@H](CCCNC(=N)N)NC(=O)[C@H](CCC(N)=O)NC(=O)[C@H](C(C)C)NC(=O)[C@H](Cc2c[nH]cn2)NC(=O)[C@H](CCC(N)=O)NC(=O)[C@H](CC(N)=O)NC(=O)[C@H](CC(C)C)NC1=O` [compound 20] (HELM PEPTIDE1{K.W.[meA].Q.S.I.L.N.Q.H.V.Q.R.V.W.G}$PEPTIDE1,PEPTIDE1,1:R3-16:R2$$$V2.0; bridges inferred), the viability (as a rule, a read-out of living cells in per cent, often relative to untreated cells) in “in vitro” is 106%. The pEC50 (usually the EC50 on a negative log10 scale, so that one unit is a factor of ten) in series [2] was less than 4.52. The pKd (as a rule, the Kd on a negative log10 scale, so that one unit is a factor of ten) at β-catenin was less than 4.52.
With `CC[C@H](C)[C@H](NC(=O)[C@H](CO)NC(=O)[C@H](CCC(=O)O)NC(=O)[C@H](Cc1c[nH]c2ccccc12)NC(=O)[C@@H](N)CCSC)C(=O)N[C@@H](CC(C)C)C(=O)N[C@@H](CC(=O)O)C(=O)N[C@@H](CCC(=O)O)C(=O)N[C@@H](Cc1c[nH]cn1)C(=O)N[C@@H](CCSC)C(=O)N[C@@H](CCC(N)=O)C(=O)N[C@@H](CCCNC(=N)N)C(=O)N[C@H](C(=O)N[C@@H](Cc1c[nH]c2ccccc12)C(=O)N[C@@H](CCCNC(=N)N)C(=O)NCC(=O)O)C(C)C` [compound 23] (H-MWESILDEHMQRVWRG-OH), the viability in the series “in vitro” came out at 98.9%. The pEC50 in series [2] is less than 4.52. Moreover, on β-catenin, the “β-Cat FP Hill slope” value is on record as 0.71 and the pKd is greater than 6.40.
For `CC[C@H](C)[C@@H]1NC(=O)[C@H](CC(C)C)NC(=O)[C@H](Cc2ccccc2)NC(=O)[C@H](Cc2c[nH]c3ccccc23)NC(=O)[C@H](CCSC)NC(=O)[C@H](CCCNC(=N)N)NC(=O)[C@H](CO)NC(=O)[C@H](CCSC)NC(=O)[C@@H](N)CCCCNC(=O)CNC(=O)[C@H](CCCNC(=N)N)NC(=O)[C@H](Cc2c[nH]c3ccccc23)NC(=O)[C@H](Cc2ccccc2)NC(=O)[C@H](CO)NC1=O` [compound 24] (HELM PEPTIDE1{K.M.S.R.M.W.F.L.I.S.F.W.R.G}$PEPTIDE1,PEPTIDE1,1:R3-14:R2$$$V2.0; bridges inferred), the viability in “in vitro” turned out to be 96.8%. Moreover, the pEC50 in series [2] is less than 4.52. At β-catenin, the “β-Cat FP Hill slope” value stood at 1 and the negative logarithm of the Kd (pKd) was greater than 6.40.
Turning to `CC[C@H](C)[C@@H]1NC(=O)[C@H](Cc2c[nH]cn2)NC(=O)[C@H](CCC(=O)O)NC(=O)[C@H](Cc2ccccc2)NC(=O)[C@H](Cc2c[nH]c3ccccc23)NC(=O)[C@H](CO)NC(=O)[C@H]([C@@H](C)CC)NC(=O)[C@H](C)N(C)C(=O)[C@H](CC(C)C)NC(=O)[C@@H]2CCCN2C(=O)[C@H](CCSC)NC(=O)[C@@H](N)CCCCNC(=O)CNC1=O` [compound 29] (HELM PEPTIDE1{K.M.P.L.[meA].I.S.W.F.E.H.I.G}$PEPTIDE1,PEPTIDE1,1:R3-13:R2$$$V2.0; bridges inferred), the viability in “in vitro” was 107%. This compound also showed a pEC50 in series [2] of less than 4.52. In addition, on β-catenin, the “β-Cat FP Hill slope” value came to 1.72 and the pKd is 6.00 to 6.40.
For `CC[C@H](C)[C@@H]1NC(=O)[C@H](CO)NC(=O)[C@H](CCC(=O)O)NC(=O)[C@H](C)N(C)C(=O)[C@H](CCSC)NC(=O)[C@@H](N)CCCCNC(=O)CNC(=O)[C@H](Cc2c[nH]c3ccccc23)NC(=O)[C@H](C(C)C)NC(=O)[C@H](CCCNC(=N)N)NC(=O)[C@H](CCC(N)=O)NC(=O)[C@H](C(C)C)NC(=O)[C@H](Cc2c[nH]cn2)NC(=O)[C@H](CCC(=O)O)NC(=O)[C@H](CC(=O)O)NC(=O)[C@H](CC(C)C)NC1=O` [compound 30] (HELM PEPTIDE1{K.M.[meA].E.S.I.L.D.E.H.V.Q.R.V.W.G}$PEPTIDE1,PEPTIDE1,1:R3-16:R2$$$V2.0; bridges inferred) the same measures were 106%, less than 4.52, 0.7 and 5.00 to 6.00.
The corresponding values for `CC[C@H](C)[C@H](NC(=O)[C@H](CC(C)C)NC(=O)[C@H](Cc1ccccc1)NC(=O)[C@H](Cc1c[nH]c2ccccc12)NC(=O)[C@@H](N)CCSC)C(=O)N[C@@H](CS)C(=O)N[C@@H](Cc1ccccn1)C(=O)N[C@@H](Cc1c[nH]c2ccccc12)C(=O)NCC(=O)O` [compound 148] (HELM PEPTIDE1{M.W.F.L.I.C.[O=C([C@H](Cc1ccccn1)N[*:1])[*:2]].W.G}$$$$V2.0) are 95.5%, 4.82 to 5.12, 0.7 and 6.00 to 6.40.
On to `CC[C@@H](C)[C@H]1NC(=O)[C@@H](CC(C)C)NC(=O)[C@@H](Cc2ccccc2)NC(=O)[C@H](Cc2c[nH]c3ccccc23)NC(=O)[C@@H](CCSC)NC(=O)CCCCCCCCCCCNC(=O)C[C@@H](C(=O)O)NC(=O)[C@H](Cc2c[nH]c3ccccc23)NC(=O)[C@@H](Cc2ccccc2)NC(=O)[C@H](CS)NC1=O` [compound 190] (HELM PEPTIDE1{[O=C(CCCCCCCCCCCN[*:1])[*:2]].[dM].W.[dF].[dL].[dI].C.[dF].W.D}$PEPTIDE1,PEPTIDE1,1:R1-10:R3$$$V2.0), for which, in the series “in vitro”, the viability is 99.6%. This compound also had a pEC50 in series [2] greater than 5.12. Also, at β-catenin, the “β-Cat FP Hill slope” value is reported as 1.92 and the pKd is 6.00 to 6.40.
The corresponding values for `CC[C@H](C)[C@H]1NC(=O)[C@H](CC(C)C)NC(=O)[C@@H](Cc2ccccc2)NC(=O)[C@H](Cc2c[nH]c3ccccc23)NC(=O)[C@@H](CCSC)NC(=O)CCCCCCCCCCCNC(=O)C[C@@H](C(=O)O)NC(=O)[C@H](Cc2c[nH]c3ccccc23)NC(=O)[C@@H](C)NC(=O)[C@@H](CS)NC1=O` [compound 193] (HELM PEPTIDE1{[O=C(CCCCCCCCCCCN[*:1])[*:2]].[dM].W.[dF].L.[CC[C@H](C)[C@@H](N[*:1])C(=O)[*:2]].[dC].[dA].W.D}$PEPTIDE1,PEPTIDE1,1:R1-10:R3$$$V2.0) are 96.6%, greater than 5.12, 2.34 and 6.00 to 6.40.
The corresponding values for `CC[C@H](C)C(NC(=O)[C@H](CC(C)C)NC(=O)C(NC(=O)[C@H](Cc1c[nH]c2ccccc12)NC(=O)[C@H](CCSC)NC(=O)C(C)(C)C)[C@@H](C)CC)C(=O)N[C@@H](CO)C(=O)N[C@@H](Cc1ccccc1)C(=O)N[C@@H](Cc1c[nH]c2ccccc12)C(=O)NCC(=O)O` (stereo partly shown) [compound 224] (Piv-MW[ξIle]L[ξIle]SFWG-OH) are 95.7%, greater than 5.12, 1.04 and greater than 6.40.
